Assay results from patent US11352322B2, “Cyclopropyl-amide compounds as dual LSD1/HDAC inhibitors” (Jubilant Epicore LLC, priority 2016, dated 2022).
Where a name gives a salt, the structure may show the parent alone. Read-outs that look alike come from different tables or passages of the source.

Experiments:
LSD1 = LSD1 (Homo sapiens (Human), UniProt O60341); assay: TR-FRET Assay for LSD1; conditions: read-out: LSD1 IC50
Description: TR-FRET Assay for LSD1 (Perkin Elmer)
Tranylcypromine (TCP), LSD1 inhibitor was procured from Selleckchem. […] Stop Solution containing 300 μM tranylcypromine in 1× LANCE Detection Buffer was added to the wells and incubated for 5 min at RT. Then, Detection mix containing 2 nM Eu-Ab and 50 nM ULight-Streptavidin in 1× LANCE Detection Buffer was prepared and added to the reaction mix. This mixture was incubated for 1 hour at room temperature.

[1] = Metabolic stability in liver microsomes, MLM; conditions: 1 μM, NADPH
Description: (§1) The microsomal suspension was prepared by adding liver microsomes to 100 mM potassium phosphate buffer (pH7.4) to give a final protein concentration of 0.5 mg/mL. The stock solution of NCE (10 mM in DMSO) was added to the microsomes to provide a final concentration of 1 μM. […] Samples were vortexed and centrifuged at 5,000 rpm for 10 min to remove proteins. Supernatant were analyzed on LC-MS/MS.

[2] = Metabolic stability in liver microsomes, HLM; conditions: 1 μM, NADPH
Description: as §1

MM1S = assay: Anticancer activity: Alamar Blue assay, MM1S; format: cell-based; conditions: Homo sapiens, MM1.S, read-out: MM1S EC50
[3] = molecular target: HDAC6 human recombinant enzyme (Homo sapiens (Human), UniProt Q9UBN7); assay: Histone Deacetylase Assay (BPS Biosciences), HDAC6; format: biochemical
Sequence of HDAC6 human recombinant enzyme (Q9UBN7 whole entry): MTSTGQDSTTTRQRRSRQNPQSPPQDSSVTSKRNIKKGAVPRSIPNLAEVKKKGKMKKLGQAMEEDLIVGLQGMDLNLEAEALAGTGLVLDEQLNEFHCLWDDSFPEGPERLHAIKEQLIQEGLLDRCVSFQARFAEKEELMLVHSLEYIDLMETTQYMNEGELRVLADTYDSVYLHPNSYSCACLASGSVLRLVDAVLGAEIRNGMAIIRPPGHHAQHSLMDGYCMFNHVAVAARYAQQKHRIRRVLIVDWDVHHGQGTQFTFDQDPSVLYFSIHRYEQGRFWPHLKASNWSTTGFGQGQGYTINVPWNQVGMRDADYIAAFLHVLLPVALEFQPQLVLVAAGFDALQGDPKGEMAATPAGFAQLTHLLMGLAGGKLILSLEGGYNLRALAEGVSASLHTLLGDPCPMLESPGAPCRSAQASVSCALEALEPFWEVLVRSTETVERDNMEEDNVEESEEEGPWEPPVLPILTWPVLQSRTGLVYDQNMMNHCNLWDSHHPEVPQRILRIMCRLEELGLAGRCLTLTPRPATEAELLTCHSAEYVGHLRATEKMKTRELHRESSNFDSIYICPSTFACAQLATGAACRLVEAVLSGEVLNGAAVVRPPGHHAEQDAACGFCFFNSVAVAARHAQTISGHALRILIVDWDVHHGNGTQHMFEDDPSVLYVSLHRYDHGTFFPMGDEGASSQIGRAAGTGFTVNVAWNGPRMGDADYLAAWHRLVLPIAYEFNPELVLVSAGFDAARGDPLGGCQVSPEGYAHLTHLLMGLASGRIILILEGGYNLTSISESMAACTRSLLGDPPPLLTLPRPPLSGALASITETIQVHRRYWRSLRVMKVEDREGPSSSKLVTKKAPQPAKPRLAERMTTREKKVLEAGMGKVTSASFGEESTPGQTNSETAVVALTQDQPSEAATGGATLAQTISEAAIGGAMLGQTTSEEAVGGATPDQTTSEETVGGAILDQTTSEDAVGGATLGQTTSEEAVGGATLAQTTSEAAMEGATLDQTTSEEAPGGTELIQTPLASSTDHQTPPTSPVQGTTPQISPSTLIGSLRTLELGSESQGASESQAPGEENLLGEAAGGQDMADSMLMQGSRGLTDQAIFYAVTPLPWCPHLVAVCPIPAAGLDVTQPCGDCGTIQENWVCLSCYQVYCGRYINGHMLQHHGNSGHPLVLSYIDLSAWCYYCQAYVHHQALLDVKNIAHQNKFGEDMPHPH
Description: Histone Deacetylase Assay (BPS Biosciences)
Histone deacetylase assay was done as per manufacturer's instructions.

SMILES | IC50 (LSD1) [nM] | Metabolic stability MLM % remaining in 30 min [1] [%] | Metabolic stability HLM % remaining in 30 min [2] [%] | EC50 (MM1S; MM1S cells) [nM] | EC50 (MM1S) [nM] | IC50 [3] [nM]
O=C(NO)c1ccc(CCCN2CCC(CNC3CC3c3ccc(C(=O)N4CCCCC4)cc3)CC2)cc1 (stereo not drawn) [Example 54, N-hydroxy-4-(3-(4-(((2-(4-(piperidine-1-carbonyl)phenyl)cyclopropyl)amino)methyl)piperidin-1-yl)propyl)benzamide TFA Salt] | 23 | 72 | 65 |  |  | 
CN(CC1CCN(CCCc2ccc(C(=O)NO)cc2)CC1)C1CC1c1ccccc1 (stereo not drawn) [Example 45, N-hydroxy-4-(3-(4-((methyl (2-phenylcyclopropyl)amino)methyl)piperidin-1-yl)propyl) benzamide TFA Salt] | 465 |  |  | 48 |  | 
O=C(NO)c1ccc(/C=C/C(=O)N2CCC(CN[C@@H]3C[C@H]3c3ccccc3)CC2)cc1 [Example 114A, N-hydroxy-4-((E)-3-oxo-3-(4-((((1R,2S)-2-phenylcyclopropyl)amino)methyl)piperidin-1-yl)prop-1-en-1-yl)benzamide TFA Salt] |  | 62 | 67 |  | 14 | 38
O=C(NO)c1cc2c(s1)CCN(C(=O)CNC1CC1c1ccc(F)cc1)C2 (stereo not drawn) [Example 103, 5-(2-((2-(4-fluorophenyl)cyclopropyl)amino)acetyl)-N-hydroxy-4,5,6,7-tetrahydrothieno [3,2-c]pyridine-2-carboxamide TFA Salt] |  | 53 | 85 |  | 45 | 41
O=C(NO)c1ccc2c(c1)CN(C(=O)CNC1CC1c1ccc(F)cc1)CC2 (stereo not drawn) [Example 104, 2-(2-((2-(4-fluorophenyl)cyclopropyl)amino)acetyl)-N-hydroxy-1,2,3,4-tetrahydroisoquinoline-7-carboxamide TFA Salt] |  | 77 | 80 |  | 269 | 32
O=C(NO)c1ccc(CC(=O)N2CCC(CN[C@H]3C[C@@H]3c3ccccc3)CC2)cc1 [Example 84B, N-hydroxy-4-(2-oxo-2-(4-((((1S,2R)-2-phenylcyclopropyl)amino)methyl)piperidin-1-yl)ethyl)benzamide TFA Salt] |  | 45 | 75 |  | 259 | 25
O=C(NO)c1cc2c(s1)CCN(C(=O)CN[C@@H]1C[C@H]1c1ccc(F)cc1)C2 [Example 103A, 5-(2-(((1R,2S)-2-(4-fluorophenyl)cyclopropyl)amino)acetyl)-N-hydroxy-4,5,6,7-tetrahydrothieno[3,2-c]pyridine-2-carboxamide TFA Salt] |  | 68 | 87 |  | 52 | 22
O=C(NO)c1cnc(N2CCC(CN[C@H]3C[C@@H]3c3ccc(F)cc3)CC2)nc1 [Example 21, 2-(4-((((1S,2R)-2-(4-fluorophenyl)cyclopropyl)amino)methyl)piperidin-1-yl)-N-hydroxypyrimidine-5-carboxamide TFA Salt] |  | 51 | 86 |  | 9 | 91
O=C(NO)c1cc2c(s1)CCN(C(=O)CCCNC1CC1c1ccc(F)cc1)C2 (stereo not drawn) [Example 105, 5-(4-((2-(4-fluorophenyl)cyclopropyl)amino)butanoyl)-N-hydroxy-4,5,6,7-tetrahydrothieno[3,2-c]pyridine-2-carboxamide TFA Salt] |  | 72 | 77 |  | 13 | 18
O=C(NO)c1ccc(CC(=O)N2CCC(CNC3CC3c3ccccc3)CC2)cc1 (stereo not drawn) [Example 84, N-hydroxy-4-(2-oxo-2-(4-(((2-phenylcyclopropyl)amino)methyl)piperidin-1-yl)ethyl)benzamide TFA Salt] |  | 40 | 78 |  | 112 | 45
O=C(NO)c1ccc(CC(=O)N2CCC(CN[C@@H]3C[C@H]3c3ccccc3)CC2)cc1 [Example 84A, N-hydroxy-4-(2-oxo-2-(4-((((1R,2S)-2-phenylcyclopropyl)amino)methyl)piperidin-1-yl)ethyl)benzamide TFA Salt] |  | 41 | 78 |  | 26 | 22
O=C(NO)c1cnc(N2CCC(CN[C@@H]3C[C@H]3c3ccc(F)cc3)CC2)nc1 [Example 20, 2-(4-((((1R,2S)-2-(4-fluorophenyl)cyclopropyl)amino)methyl)piperidin-1-yl)-N-hydroxypyrimidine-5-carboxamide TFA Salt] |  | 69 | 91 |  | 3 | 72
O=C(NO)c1ccc2c(c1)CN(C(=O)CN[C@H]1C[C@@H]1c1ccc(F)cc1)CC2 [Example 104A, 2-(2-(((1S,2R)-2-(4-fluorophenyl)cyclopropyl)amino)acetyl)-N-hydroxy-1,2,3,4-tetrahydroisoquinoline-7-carboxamide TFA Salt] |  | 68 | 74 |  | 183 | 53
Nc1ccccc1NC(=O)c1ccc2c(c1)CN(C(=O)CNC1CC1c1ccc(F)cc1)CC2 (stereo not drawn) [Example 152, N-(2-aminophenyl)-2-(2-((2-(4-fluorophenyl)cyclopropyl)amino)acetyl)-1,2,3,4-tetrahydroisoquinoline-7-carboxamide TFA Salt] |  | 31 | 36 |  | 566 | > 10000
Nc1ccccc1NC(=O)c1cc2c(s1)CCN(C(=O)CNC1CC1c1ccc(F)cc1)C2 (stereo not drawn) [Example 151, N-(2-aminophenyl)-5-((2-(4-fluorophenyl)cyclopropyl)glycyl)-4,5,6,7-tetrahydrothieno[3,2-c]pyridine-2-carboxamide TFA Salt] |  | 18 | 30 |  | 345 | > 10000
O=C(NO)c1ccc(/C=C/C(=O)N2CCC(CN[C@H]3C[C@@H]3c3ccccc3)CC2)cc1 [Example 114B, N-hydroxy-4-((E)-3-oxo-3-(4-((((1S,2R)-2-phenylcyclopropyl)amino)methyl)piperidin-1-yl)prop-1-en-1-yl)benzamide TFA Salt] |  | 43 | 73 |  | 97 | 33
O=C(NO)c1cc2c(s1)CCN(C(=O)CN[C@H]1C[C@@H]1c1ccc(F)cc1)C2 [Example 103B, 5-(2-(((1S,2R)-2-(4-fluorophenyl)cyclopropyl)amino)acetyl)-N-hydroxy-4,5,6,7-tetrahydrothieno[3,2-c]pyridine-2-carboxamide TFA Salt] |  | 73 | 76 |  | 15 | 36
Nc1ccccc1NC(=O)c1ccc(CNC(=O)CNC2CC2c2ccc(F)cc2)cc1 (stereo not drawn) [Example 155, N-(2-aminophenyl)-4-((2-((2-(4-fluorophenyl)cyclopropyl)amino)acetamido)methyl)benzamide TFA Salt] |  | 34 | 46 |  | 42 | > 10000
